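Five compound concentrations were applied to cells in 96-well plates for 48 hours; endpoints were derived by simple linear interpolation of the resulting dose-response curve. TGI is the concentration that stops growth completely.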

For one assay, the system named is SF-539 CNS. The assay is described as follows: inhibition of tumour cell growth, NCI panel, 48 h.
The compound `CC(C)C1=C(O)C2=C(C(=O)C1=O)C1(C)CCCC(C)(C)C1C(O)C2OC=O` (stereo not given) displayed a TGI of 31.5 µM.

On to `CC(C)[Si](OC/C(=C/COC(C)(C)C)[C@H]1CC=C(C(=O)c2ccccc2N2CN(C)C(=O)N(C)C2)C1)(C(C)C)C(C)C`, for which the TGI was 17.8 µM.

`CC(C)=CCC[C@@H](C)C1=C(O)C(N)=C(C)C(=O)C1=O` registered a TGI of 89.5 µM.

The subject of a further assay is LOX IMVI melanoma. Briefly: inhibition of tumour cell growth, NCI panel, 48 h.
Regarding `CC(C)C1=C(O)C2=C(C(=O)C1=O)C1(C)CCCC(C)(C)C1C(O)C2OC=O` (stereo not given), the TGI came to 11.6 µM.

On to `CC(C)[Si](OC/C(=C/COC(C)(C)C)[C@H]1CC=C(C(=O)c2ccccc2N2CN(C)C(=O)N(C)C2)C1)(C(C)C)C(C)C`, for which the TGI amounted to 4.06 µM.

For `CC(C)=CCC[C@@H](C)C1=C(O)C(N)=C(C)C(=O)C1=O`, the TGI was over 100 µM.

The test system of another assay is SNB-19 CNS. Briefly: inhibition of tumour cell growth, NCI panel, 48 h.
The compound `CC(C)C1=C(O)C2=C(C(=O)C1=O)C1(C)CCCC(C)(C)C1C(O)C2OC=O` (stereo not given) returned a TGI of 31.7 µM.

`CC(C)[Si](OC/C(=C/COC(C)(C)C)[C@H]1CC=C(C(=O)c2ccccc2N2CN(C)C(=O)N(C)C2)C1)(C(C)C)C(C)C`: the TGI is 24.9 µM.

On to `CC(C)=CCC[C@@H](C)C1=C(O)C(N)=C(C)C(=O)C1=O`, for which the TGI was over 100 µM.

Another assay concerns RXF 393 renal. The assay is described as follows: inhibition of tumour cell growth, NCI panel, 48 h.
`CC(C)C1=C(O)C2=C(C(=O)C1=O)C1(C)CCCC(C)(C)C1C(O)C2OC=O` (stereo not given) displayed a TGI of 20.2 µM.

In turn, `CC(C)[Si](OC/C(=C/COC(C)(C)C)[C@H]1CC=C(C(=O)c2ccccc2N2CN(C)C(=O)N(C)C2)C1)(C(C)C)C(C)C` came in with a TGI of 17.5 µM.

As to `CC(C)=CCC[C@@H](C)C1=C(O)C(N)=C(C)C(=O)C1=O`, the TGI is over 100 µM.

A further assay deals with UO-31 renal. Briefly: inhibition of tumour cell growth, NCI panel, 48 h.
In turn, `CC(C)C1=C(O)C2=C(C(=O)C1=O)C1(C)CCCC(C)(C)C1C(O)C2OC=O` (stereo not given) showed a TGI of 18.8 µM.

In turn, `CC(C)[Si](OC/C(=C/COC(C)(C)C)[C@H]1CC=C(C(=O)c2ccccc2N2CN(C)C(=O)N(C)C2)C1)(C(C)C)C(C)C` yielded a TGI of 23.1 µM.

In turn, `CC(C)=CCC[C@@H](C)C1=C(O)C(N)=C(C)C(=O)C1=O` gave a TGI of over 71.1 µM.

The next assay relates to 786-0 renal. The assay is described as follows: inhibition of tumour cell growth, NCI panel, 48 h.
In turn, `CC(C)C1=C(O)C2=C(C(=O)C1=O)C1(C)CCCC(C)(C)C1C(O)C2OC=O` (stereo not given) gave a TGI of 19 µM.

With `CC(C)[Si](OC/C(=C/COC(C)(C)C)[C@H]1CC=C(C(=O)c2ccccc2N2CN(C)C(=O)N(C)C2)C1)(C(C)C)C(C)C`, the TGI stood at 17.9 µM.

As for `CC(C)=CCC[C@@H](C)C1=C(O)C(N)=C(C)C(=O)C1=O`, the TGI is over 100 µM.

The next assay has as its system SF-268 CNS. The assay is described as follows: inhibition of tumour cell growth, NCI panel, 48 h.
Consider `CC(C)C1=C(O)C2=C(C(=O)C1=O)C1(C)CCCC(C)(C)C1C(O)C2OC=O` (stereo not given), for which the TGI was 24.4 µM.

Take `CC(C)[Si](OC/C(=C/COC(C)(C)C)[C@H]1CC=C(C(=O)c2ccccc2N2CN(C)C(=O)N(C)C2)C1)(C(C)C)C(C)C`: the TGI was determined as 17.3 µM.

`CC(C)=CCC[C@@H](C)C1=C(O)C(N)=C(C)C(=O)C1=O` showed a TGI of over 100 µM.

The test system of the next assay is PC-3 prostate. The assay is described as follows: inhibition of tumour cell growth, NCI panel, 48 h.
In turn, `CC(C)C1=C(O)C2=C(C(=O)C1=O)C1(C)CCCC(C)(C)C1C(O)C2OC=O` (stereo not given) came in with a TGI of 30.6 µM.

`CC(C)[Si](OC/C(=C/COC(C)(C)C)[C@H]1CC=C(C(=O)c2ccccc2N2CN(C)C(=O)N(C)C2)C1)(C(C)C)C(C)C` had a TGI of 18.1 µM.

Compound `CC(C)=CCC[C@@H](C)C1=C(O)C(N)=C(C)C(=O)C1=O` returned a TGI of over 100 µM.

Another assay has as its system BT-549 breast. The assay is described as follows: inhibition of tumour cell growth, NCI panel, 48 h.
`CC(C)C1=C(O)C2=C(C(=O)C1=O)C1(C)CCCC(C)(C)C1C(O)C2OC=O` (stereo not given) displayed a TGI of 21.5 µM.

Consider `CC(C)[Si](OC/C(=C/COC(C)(C)C)[C@H]1CC=C(C(=O)c2ccccc2N2CN(C)C(=O)N(C)C2)C1)(C(C)C)C(C)C`, for which the TGI is 26.5 µM.

Compound `CC(C)=CCC[C@@H](C)C1=C(O)C(N)=C(C)C(=O)C1=O` showed a TGI of over 100 µM.

Another assay deals with SR leukemia. Briefly: inhibition of tumour cell growth, NCI panel, 48 h.
`CC(C)C1=C(O)C2=C(C(=O)C1=O)C1(C)CCCC(C)(C)C1C(O)C2OC=O` (stereo not given) displayed a TGI of 6.52 µM.

In turn, `CC(C)[Si](OC/C(=C/COC(C)(C)C)[C@H]1CC=C(C(=O)c2ccccc2N2CN(C)C(=O)N(C)C2)C1)(C(C)C)C(C)C` gave a TGI of 5.95 µM.

Compound `CC(C)=CCC[C@@H](C)C1=C(O)C(N)=C(C)C(=O)C1=O` showed a TGI of over 78.4 µM.
